This is an account of results in ChEMBL document CHEMBL1201862, “PubChem BioAssay data set” (2004).

The source made the active and inactive calls. Some results are limits rather than exact numbers.

In general, EC50 refers to the concentration needed to bring the measured effect to its halfway point. Usually AC50 stands for the concentration giving half of the maximal activity seen. What is called IC50 is the concentration that gives 50% inhibition.

Experiment [1] is described as follows: C. albicans growth with fluconazole, confirmation, fluorescence, retest (AID 2467). Format: functional, cell-based.
A short description of experiment [2]: NIH-3T3 fibroblast cytotoxicity, dose response, cytotoxicity control, cell-based, fluorescence, Alamar Blue, secondary assay (AID 2327).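 Note: NIH-3T3 mouse fibroblasts cultured with fluconazole at 8 µg/mL.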 Type of experiment: functional.
The target of experiment [3] is Cytochrome P450 2D6 (Homo sapiens, UniProt P10635).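 Note: CYP2D6 member of a cytochrome P450 panel assay.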
The target of experiment [4] is Cytochrome P450 2C19 (Homo sapiens, UniProt P33261). Nature of the experiment: Cytochrome panel assay with activity outcomes. Panel member name: p450-cyp2c19 Compounds with AC50 equal or less than 10 uM are considered active. The note with it: read-out: AC50. Type of experiment: functional.
Experiment [5] concerns the target T1, Protein skinhead-1 (Caenorhabditis elegans, UniProt P34707).
T1 sequence (P34707 whole entry): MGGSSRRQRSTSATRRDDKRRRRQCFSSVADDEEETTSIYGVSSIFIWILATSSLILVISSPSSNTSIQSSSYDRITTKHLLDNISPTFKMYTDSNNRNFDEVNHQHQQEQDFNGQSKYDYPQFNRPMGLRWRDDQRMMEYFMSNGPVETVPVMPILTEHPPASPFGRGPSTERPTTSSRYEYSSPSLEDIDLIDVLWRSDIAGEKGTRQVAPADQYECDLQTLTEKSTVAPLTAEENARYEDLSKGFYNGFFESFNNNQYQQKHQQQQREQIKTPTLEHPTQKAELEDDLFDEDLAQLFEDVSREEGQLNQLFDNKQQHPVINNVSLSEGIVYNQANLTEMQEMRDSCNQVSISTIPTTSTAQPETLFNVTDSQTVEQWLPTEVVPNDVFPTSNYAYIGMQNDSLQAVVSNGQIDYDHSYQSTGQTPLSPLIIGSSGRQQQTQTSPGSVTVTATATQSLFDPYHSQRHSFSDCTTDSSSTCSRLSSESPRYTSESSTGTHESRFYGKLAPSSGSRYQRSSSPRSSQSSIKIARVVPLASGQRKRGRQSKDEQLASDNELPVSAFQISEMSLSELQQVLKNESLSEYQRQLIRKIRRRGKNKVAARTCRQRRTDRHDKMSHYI
Type of experiment: functional.

Experiment [6] can be described thus: cells. Type of experiment: functional.
Experiment [7] can be described thus: Shn3 3'UTR reporter inhibitors, dose response, cell-based, Clone20 osteoblasts, firefly luciferase, cherry-picked (AID 624132).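 Note: firefly luciferase luminescence from reporter carrying the Shn3 3'UTR in osteoblasts.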 Format: functional.
Experiment [8] is described as follows: HepG2 cell cytotoxicity, dose response, cytotoxicity control for Shn3 inhibitor project, CellTiter-Glo, cherry-picked (AID 624134). Format: functional, cell-based.
Experiment [9] has as its target Cytochrome P450 3A4 (Homo sapiens, UniProt P08684).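 Note: CYP3A4 tested as one member of a cytochrome P450 panel screen.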
In experiment [10] the target is Cytochrome P450 2C9 (Homo sapiens, UniProt P11712).
Experiment [11] deals with T2, Protein RecA (Mycobacterium tuberculosis, UniProt P9WHJ3).
T2 sequence (P9WHJ3 whole entry): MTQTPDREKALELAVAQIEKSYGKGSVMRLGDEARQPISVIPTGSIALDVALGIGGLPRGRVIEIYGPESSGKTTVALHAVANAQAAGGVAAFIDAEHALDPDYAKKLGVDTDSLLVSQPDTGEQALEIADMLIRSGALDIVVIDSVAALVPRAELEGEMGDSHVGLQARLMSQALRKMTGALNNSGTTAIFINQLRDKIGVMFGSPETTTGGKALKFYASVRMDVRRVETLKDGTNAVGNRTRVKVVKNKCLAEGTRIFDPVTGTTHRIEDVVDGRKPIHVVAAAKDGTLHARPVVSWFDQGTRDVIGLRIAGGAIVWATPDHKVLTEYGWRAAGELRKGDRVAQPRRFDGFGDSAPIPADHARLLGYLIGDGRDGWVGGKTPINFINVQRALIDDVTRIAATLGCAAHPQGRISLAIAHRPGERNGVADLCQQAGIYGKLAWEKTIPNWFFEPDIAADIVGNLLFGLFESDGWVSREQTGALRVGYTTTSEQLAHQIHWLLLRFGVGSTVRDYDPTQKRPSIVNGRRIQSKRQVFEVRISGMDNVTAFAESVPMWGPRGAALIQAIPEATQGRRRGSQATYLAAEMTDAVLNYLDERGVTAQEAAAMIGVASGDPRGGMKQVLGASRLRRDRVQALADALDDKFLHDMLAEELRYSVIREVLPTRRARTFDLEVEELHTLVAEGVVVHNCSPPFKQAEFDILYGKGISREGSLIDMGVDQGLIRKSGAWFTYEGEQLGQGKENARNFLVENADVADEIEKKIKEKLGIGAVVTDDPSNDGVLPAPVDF
In words: Fluorescence Cell-Free Homogeneous Dose Retest to Identify Inhibitors of RecA-Intein Splicing Activity. [Related pubchem assays (depositor defined):AID2097, AID2223, AID489010, AID492950]. Format: functional.

For experiment [12], the target named is T3, Replicative DNA helicase DnaB (Mycobacterium tuberculosis, UniProt P9WMR3).
T3 sequence (P9WMR3 whole entry): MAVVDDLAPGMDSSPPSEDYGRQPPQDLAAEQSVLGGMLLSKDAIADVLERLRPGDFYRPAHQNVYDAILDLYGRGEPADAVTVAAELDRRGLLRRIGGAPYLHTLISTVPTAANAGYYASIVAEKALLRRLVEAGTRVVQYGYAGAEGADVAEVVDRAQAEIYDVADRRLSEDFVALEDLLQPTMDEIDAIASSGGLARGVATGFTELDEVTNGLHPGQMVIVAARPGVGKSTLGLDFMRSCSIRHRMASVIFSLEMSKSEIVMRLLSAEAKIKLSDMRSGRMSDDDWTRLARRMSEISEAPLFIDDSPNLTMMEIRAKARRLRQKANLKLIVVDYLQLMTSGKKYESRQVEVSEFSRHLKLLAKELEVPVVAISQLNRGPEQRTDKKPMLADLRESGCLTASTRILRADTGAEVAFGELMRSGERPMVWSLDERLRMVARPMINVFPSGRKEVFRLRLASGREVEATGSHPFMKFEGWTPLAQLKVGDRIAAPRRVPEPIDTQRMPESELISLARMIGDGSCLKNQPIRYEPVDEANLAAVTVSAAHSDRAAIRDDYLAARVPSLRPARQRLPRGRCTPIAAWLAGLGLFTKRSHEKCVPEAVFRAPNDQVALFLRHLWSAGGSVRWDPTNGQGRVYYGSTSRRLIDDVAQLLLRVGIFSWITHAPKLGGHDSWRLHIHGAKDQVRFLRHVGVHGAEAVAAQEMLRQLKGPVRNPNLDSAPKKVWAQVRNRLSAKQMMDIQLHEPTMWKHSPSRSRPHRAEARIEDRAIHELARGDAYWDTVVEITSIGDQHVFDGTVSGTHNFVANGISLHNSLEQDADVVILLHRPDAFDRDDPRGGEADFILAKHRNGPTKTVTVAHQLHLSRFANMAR
In words: DnaB intein splicing inhibitors, dose response, biochemical, cell-free fluorescence (AID 449749). Format: functional.

Experiment [13] deals with Streptococcus. Nature of the experiment: Group A Streptococcus viability loss, dose response, counter-screen for streptokinase expression inhibitor project, luminescence, BacTiterGlo (AID 1915).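 Note: potency for reduction of bacterial viability or growth.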 Type of experiment: functional, organism-based. (Counterscreens check selectivity or assay interference.)
Experiment [14] deals with Streptococcus sp. 'group A'. In words: growth inhibition of control SK(-) GAS strain, dose response, counter-screen for streptokinase expression inhibitor project, luminescence, kanamycin, BacTiterGlo, confirmation (AID 1900). Format: functional, organism-based.
Experiment [15] has as its target T4, Streptokinase A (Streptococcus pyogenes serotype M1, UniProt P10520).
T4 sequence (P10520 whole entry): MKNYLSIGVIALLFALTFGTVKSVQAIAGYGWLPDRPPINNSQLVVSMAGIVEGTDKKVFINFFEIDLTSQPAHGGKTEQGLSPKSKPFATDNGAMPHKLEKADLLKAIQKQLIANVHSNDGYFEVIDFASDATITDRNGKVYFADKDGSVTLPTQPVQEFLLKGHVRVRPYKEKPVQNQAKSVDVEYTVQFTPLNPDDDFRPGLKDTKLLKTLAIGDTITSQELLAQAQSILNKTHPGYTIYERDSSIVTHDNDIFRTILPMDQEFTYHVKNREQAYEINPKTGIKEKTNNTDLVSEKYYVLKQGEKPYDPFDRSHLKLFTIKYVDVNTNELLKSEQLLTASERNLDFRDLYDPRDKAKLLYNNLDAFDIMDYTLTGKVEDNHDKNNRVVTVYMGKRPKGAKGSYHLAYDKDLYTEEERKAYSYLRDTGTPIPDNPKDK
In words: S. pyogenes streptokinase expression inhibitors, potency, dose response, plasminogen activation absorbance, OD405 (AID 1914).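 Note: secreted streptokinase activity via plasminogen activation per viability signal from cell pellet.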 Format: functional, Streptococcus pyogenes M1 GAS.

Experiment [16] in a line: HEp-2 cell cytotoxicity, dose response, cytotoxicity control for RSV inhibitor project, HTS (AID 2410). Format: functional. The note with it: human respiratory syncytial virus.
A short description of experiment [17]: inhibitors of intracellular T. cruzi replication, confirmation, NIH3T3 host cells, beta-gal luminescence (AID 2044).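 Note: intracellular parasites grown in NIH/3T3 mouse fibroblasts as host cells; luminescent beta-galactosidase reporter signal from transgenic T. cruzi replicating inside host cells; inhibitors lower the luminescence signal.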 Type of experiment: functional, cell-based.
A short description of experiment [18]: microbe, parasite or virus in culture. The note with it: Mycobacterium tuberculosis. Format: functional.
A short description of experiment [19]: cytotoxicity toward NIH3T3 fibroblasts, dose response, counter-screen, cell-based, ATP luminescence, mouse fibroblasts (AID 2010).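 Note: cells exposed to compound for about 90 hours before reading.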 Format: functional.

Chain of Cytochrome P450 3A4 (P08684 whole entry): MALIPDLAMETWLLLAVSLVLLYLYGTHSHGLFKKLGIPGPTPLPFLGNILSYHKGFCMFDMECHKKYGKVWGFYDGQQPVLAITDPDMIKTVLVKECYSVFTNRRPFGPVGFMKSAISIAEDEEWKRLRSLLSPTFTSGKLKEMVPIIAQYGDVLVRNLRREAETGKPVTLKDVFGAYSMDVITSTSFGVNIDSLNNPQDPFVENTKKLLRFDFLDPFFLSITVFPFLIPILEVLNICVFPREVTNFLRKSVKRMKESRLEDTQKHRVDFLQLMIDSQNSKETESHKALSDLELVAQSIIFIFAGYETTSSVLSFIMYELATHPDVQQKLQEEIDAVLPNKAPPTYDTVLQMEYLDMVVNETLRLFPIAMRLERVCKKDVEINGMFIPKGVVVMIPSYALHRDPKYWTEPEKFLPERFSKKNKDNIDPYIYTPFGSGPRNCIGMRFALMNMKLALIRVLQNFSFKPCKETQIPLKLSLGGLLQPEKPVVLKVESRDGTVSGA
Chain of Cytochrome P450 2D6 (P10635 whole entry): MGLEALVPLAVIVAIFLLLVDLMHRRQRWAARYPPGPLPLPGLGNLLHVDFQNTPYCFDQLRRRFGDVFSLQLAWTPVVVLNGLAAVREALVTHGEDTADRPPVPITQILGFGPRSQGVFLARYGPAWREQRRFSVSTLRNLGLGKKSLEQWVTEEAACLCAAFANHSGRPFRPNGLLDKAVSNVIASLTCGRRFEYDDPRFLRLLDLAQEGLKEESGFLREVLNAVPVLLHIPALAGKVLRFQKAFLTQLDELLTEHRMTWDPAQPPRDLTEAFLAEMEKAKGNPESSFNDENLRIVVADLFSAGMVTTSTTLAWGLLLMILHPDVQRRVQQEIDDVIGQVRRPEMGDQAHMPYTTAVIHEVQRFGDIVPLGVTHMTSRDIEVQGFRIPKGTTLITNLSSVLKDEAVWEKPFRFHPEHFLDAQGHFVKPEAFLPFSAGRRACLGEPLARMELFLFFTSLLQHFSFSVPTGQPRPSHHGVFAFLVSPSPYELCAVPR
Chain of Cytochrome P450 2C19 (P33261 whole entry): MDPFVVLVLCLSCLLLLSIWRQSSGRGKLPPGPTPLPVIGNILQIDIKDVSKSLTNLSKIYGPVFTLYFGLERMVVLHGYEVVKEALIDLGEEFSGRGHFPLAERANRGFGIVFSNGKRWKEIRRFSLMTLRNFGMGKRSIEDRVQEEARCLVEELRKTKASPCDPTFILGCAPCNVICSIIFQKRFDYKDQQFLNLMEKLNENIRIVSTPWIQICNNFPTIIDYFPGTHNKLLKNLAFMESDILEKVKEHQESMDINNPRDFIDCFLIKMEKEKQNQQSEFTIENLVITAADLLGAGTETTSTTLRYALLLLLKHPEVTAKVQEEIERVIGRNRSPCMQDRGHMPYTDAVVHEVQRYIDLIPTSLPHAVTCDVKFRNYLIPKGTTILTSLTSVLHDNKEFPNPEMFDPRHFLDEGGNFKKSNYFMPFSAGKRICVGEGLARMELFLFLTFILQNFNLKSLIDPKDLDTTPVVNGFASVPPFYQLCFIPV
Chain of Cytochrome P450 2C9 (P11712 whole entry): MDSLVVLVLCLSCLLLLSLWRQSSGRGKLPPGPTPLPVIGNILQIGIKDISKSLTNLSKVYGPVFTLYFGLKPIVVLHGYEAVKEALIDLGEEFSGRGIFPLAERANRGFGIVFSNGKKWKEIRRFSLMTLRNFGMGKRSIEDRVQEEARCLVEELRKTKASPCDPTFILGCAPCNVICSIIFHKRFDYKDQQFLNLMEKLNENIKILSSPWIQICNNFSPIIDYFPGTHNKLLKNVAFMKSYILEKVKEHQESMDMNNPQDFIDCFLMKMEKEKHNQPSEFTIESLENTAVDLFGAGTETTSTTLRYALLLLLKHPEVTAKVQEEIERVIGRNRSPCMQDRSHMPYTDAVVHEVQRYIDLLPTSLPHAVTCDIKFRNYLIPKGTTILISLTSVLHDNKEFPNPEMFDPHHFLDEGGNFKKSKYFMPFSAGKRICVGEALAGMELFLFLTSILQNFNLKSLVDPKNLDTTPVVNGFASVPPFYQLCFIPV

With `CCOc1ccc(NC(=O)CCC(=O)N/N=C/c2ccc3c(c2)OCO3)cc1`, the EC50 in [1] was > 38 µM (not active); in [2], > 150 µM (inactive).

On to `CNc1ncnc2ccc(-c3ccccc3OC)cc12`, for which the AC50 in experiment [3] was 25.1 µM (inconclusive); in experiment [4], 31.6 µM (inconclusive).

For the molecule `CCOC(=O)CN(C(=O)CNC(=O)c1cccs1)C(C(=O)NC1CCCCC1)c1cccs1` (stereo not given), the IC50 in experiment [5] was > 100 µM (inactive).

Take `CCOC(=O)Nc1cccc(OCC(=O)Nc2ccccc2OC)c1`: the IC50 in experiment [6] is > 50 µM (active).

Turning to `CCOC(=O)C(Cc1cc(C(C)=O)ccc1OCC)C(=O)OCC`, in [5], the IC50 is > 100 µM (inactive).

Regarding `Cc1ccc(S(=O)(=O)N2CCC3(CC2)OCCN3S(=O)(=O)c2c(C)cc(C)cc2C)cc1`, the figures for the half-maximal activity concentration (AC50) in experiment [7] and in experiment [8] were 6.81 µM (active) and 56.1 µM (active), respectively.

Consider `Fc1ccc2c(c1)C(c1ccncc1)=NNC(c1cccnc1)=N2`, for which the concentration giving a half-maximal response (EC50) in experiment [1] is 2.26 µM (active); in experiment [2] it was > 160 µM (inactive).

Regarding `CSc1cccc(NC(=O)Nc2ccc(Cl)cc2)c1`, the values for the AC50 in experiment [3] and in [9] were 3.55 µM (inconclusive) and 14.1 µM (inconclusive), respectively.

Turning to `CCCn1cnc2c(SCc3ccc(Cl)cc3)nc(N)nc21`, the results for the concentration at half-maximal activity (AC50) in experiment [3], in experiment [9] and in experiment [10] were 3.16 µM (inconclusive), 6.31 µM (inconclusive) and 6.31 µM (inconclusive), respectively.

For `O=C1c2ccccc2C(=O)N1CCCSc1ccccc1`, in experiment [3], the AC50 is 3.16 µM (inconclusive).

For `Clc1ccc(-c2csc(N3CCSCC3)n2)cc1`, the IC50 in experiment [5] is > 100 µM (inactive).

For the molecule `COc1ccc(N(CC(=O)NC2CCCCC2)C(=O)CNC(=O)c2cccs2)cc1`, the IC50 in experiment [5] is > 100 µM (inactive).

`Cc1n[nH]c2c1C(c1ccc(OC(=O)c3ccco3)cc1)C(C#N)=C(N)O2` (stereo not given): the EC50 in experiment [11] was 3.62 µM (active). Further, the AC50 in experiment [12] is 9.43 µM (active). In addition, the IC50 in [6] was 35.2 µM (active).

As to `CN1c2ccsc2/C(=N/Nc2ccccc2)CS1(=O)=O`, the EC50 in experiment [13] was 16.1 µM (active); in [14], 2.34 µM (active); in experiment [15], 4.12 µM (active). Also, in [6], the IC50 is 37 µM (active). In addition, the CC50 in experiment [16] was > 50 µM (active).

`c1ccc(CC2CCN(C3=Nc4cccc5cccc3c45)CC2)cc1`: the EC50 in experiment [17] is 0.935 µM (active); in [1] it was 4.58 µM (active); in [2], 73.9 µM (active); in experiment [19], > 30 µM (not active). In experiment [18], the CC50 is > 40 µM (active).

Turning to `COC(=O)C1=C(CN2CCSCC2)NC(=O)NC1c1cc(C)ccc1C` (stereo not given), the IC50 in experiment [5] was > 100 µM (inactive).

As for `Clc1ccc(-c2cc(CSc3cccc(Cl)c3)on2)cc1`, in experiment [5], the IC50 was 59.2 µM (inactive).

On to `CC(C)COc1ccc(-c2nnc(-c3ccco3)o2)cc1`, for which, in [5], the IC50 was > 100 µM (inactive).

Take `CC(C)C(CCNC(=O)CC(Cc1ccccc1)c1ccco1)c1ccco1` (stereo not given): the half-maximal activity concentration (AC50) in [3] is 5.62 µM (inconclusive); in experiment [9], 39.8 µM (inconclusive); in experiment [4], 0.631 µM (inconclusive).

Take `Cc1cc(C)c2ccc3c(C)c(C)[nH]c3c2n1`: the IC50 in [5] is < 3.13 µM (active).

For `O=C(NCC1CC1)c1ccc(-c2cn[nH]c2)c2ccoc12`, the IC50 in experiment [5] is 100 µM (inactive).

For `Cc1cnc(CNc2nc(-c3ccoc3)nc3ccccc23)cn1`, the AC50 in experiment [3] is 20 µM (inconclusive).

For `CC(C)(C)/C(O)=C/c1nc2ccccc2oc1=O`, in experiment [6], the IC50 was 3.06 µM (active).

In the case of `COc1cccc(Cn2c(=O)c(-c3cccs3)nc3cncnc32)c1`, the AC50 in [3] is 6.31 µM (inconclusive).

On to `Cc1nc2ccccc2cc1OCc1ccccc1`, for which the concentration giving a half-maximal response (EC50) in [1] was 3.26 µM (active); in experiment [2] it was > 160 µM (inactive).
